Reference: US9096646B2, “CXCR4 receptor compounds” (priority 2008, dated 2015)
Values joined by “and” are separate entries in the source; they are usually repeats but may differ in a detail not shown here. Equal values may be shown once. Read-outs that look alike come from different tables or passages of the source. Peptide text beside a SMILES is read from it. * marks the point of attachment. Palmitoyl = CCCCCCCCCCCCCCCC(=O)*

Assays:
CXCR4 [1] = biological target: T1, CXCR4 (Homo sapiens, UniProt P61073); test: Chemotaxis assay using SUP B-15 cells; type: cell-based; parameters: A similar procedure was followed for chemotaxis using SUP B-15 cells; endogenous in cells; host or cells: SUP B-15 cells; conditions: for activity at 1 µM: SUP-B15, Table 18, i1 loop, SUP B-15 cells, drug conc 1.0 uM; for AUC (% of vehicle) / Max (% of vehicle) / Peak Test Comp.: Table 19, i2 loop, SUPB-15 cells, conc 1.0 uM
T1 sequence (P61073 whole entry): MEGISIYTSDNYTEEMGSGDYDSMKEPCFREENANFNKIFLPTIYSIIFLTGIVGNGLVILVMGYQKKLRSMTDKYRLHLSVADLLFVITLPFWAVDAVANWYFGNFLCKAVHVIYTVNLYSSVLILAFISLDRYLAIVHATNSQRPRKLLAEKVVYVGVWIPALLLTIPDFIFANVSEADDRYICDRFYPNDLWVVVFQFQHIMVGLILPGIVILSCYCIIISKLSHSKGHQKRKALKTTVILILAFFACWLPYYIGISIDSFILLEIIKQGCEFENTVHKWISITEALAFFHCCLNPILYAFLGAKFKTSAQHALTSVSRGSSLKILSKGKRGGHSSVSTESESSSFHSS
From the text: Chemotaxis assays were utilized to determine the effect of compound on the directed migration of cells in response to chemokine. Cells that express a receptor of interest were placed in the upper chamber of a Transwell chemotaxis plate (Corning) and allowed to migrate through a polycarbonate membrane to a lower chamber containing the appropriate receptor-specific ligand. To test for antagonist or potentiating activity, cells were mixed with the desired concentration of compound prior to addition to the upper chamber. Conversely, agonist activity was determined by adding compound in the bottom chamber only without endogenous chemokine. The effect of compound is quantified by several parameters, including the extent of maximum response, the shift of agonist dose-response curves, and the area under the curve.
To measure the CXCR4-dependent migration of cells, the appropriate concentration of CXCL12 (SDF1a) or test compound was diluted in phenol red-free RMPI-1640/20 mM HEPES/0.5% BSA buffer and placed in the bottom chamber of a transwell apparatus. CCRF-CEM cells, a human T-cell ALL line that endogenously expresses CXCR4, were washed twice in buffer and resuspended at 133,000 cells/ml. A 75 μl sample of this suspension is mixed with the test compound of interest and placed in the upper chamber of a 5-micron transwell apparatus.
To initiate cell migration, the assembled transwell plate was placed in a 37° C., […] incubator for a specified time interval, typically between 30 and 120 minutes. After incubation, the unit was disassembled and the lower chamber placed at −80° C. overnight to facilitate lysis of cells. To quantify migrated cells, plates were thawed at 37° C. in a humidified chamber, and then a sample volume was removed from each well and mixed with an equal volume of CyQuant (Invitrogen) working solution in opaque plates. The fluorescence intensity of each well represents the DNA content and is directly proportional to cell number. Each sample was typically run in duplicate or triplicate and each plate included two separate negative controls. The plate background control, which included no cells in the upper chamber, was subtracted from all values. The negative control had no agonist added in the lower chamber, and served to establish the baseline for random migration. A similar procedure was followed for chemotaxis using SUP B-15 cells.

CXCR4 [2] = biological target: T1, CXCR4; test: Chemotaxis assay, effect on SDF1-a (CXCL12) induced migration of CCRF-CEM cells; type: cell-based; parameters: a human T-cell ALL line that endogenously expresses CXCR4; endogenous in cells; host or cells: CCRF-CEM (human T-cell ALL line); conditions: CCRF-CEM, Table 18, i1 loop, CEM cells; for activity at 0.03 µM: drug conc 0.03 uM; for activity at 0.1 µM: drug conc 0.1 uM; for activity at 0.3 µM: drug conc 0.3 uM; for activity at 1 µM: drug conc 1.0 uM; for activity at 3 µM: drug conc 3.0 uM
Experimental: To initiate cell migration, the assembled transwell plate was placed in a 37° C., 0.5% CO2 incubator for a specified time interval, typically between 30 and 120 minutes. After incubation, the unit was disassembled and the lower chamber placed at −80° C. overnight to facilitate lysis of cells. To quantify migrated cells, plates were thawed at 37° C. in a humidified chamber, and then a sample volume was removed from each well and mixed with an equal volume of CyQuant (Invitrogen) working solution in opaque plates. The fluorescence intensity of each well represents the DNA content and is directly proportional to cell number. […] The plate background control, which included no cells in the upper chamber, was subtracted from all values.

activity at 1 µM (CXCR4 [1]; read-out: AUC (% of)) | activity at 1 µM (CXCR4 [1]; read-out: Max (% of)) | Compound | AUC (% of vehicle) (CXCR4 [1]) | Max (% of vehicle) (CXCR4 [1]) | Peak Test Comp. (CXCR4 [1]) | further results
43.8% | 33.5% | CCCCCCCCCCCCCCCC(=O)N[C@@H](CCCCN)C(=O)N[C@@H](CCCCN)C(=O)N[C@@H](CC(C)C)C(=O)N[C@@H](CCCNC(=N)N)C(=O)N[C@@H](CO)C(=O)N[C@@H](CCSC)C(=O)N[C@H](C(=O)N[C@@H](CC(=O)O)C(=O)N[C@@H](CCCCN)C(=O)N[C@@H](Cc1ccc(O)cc1)C(=O)N[C@@H](CCCNC(=N)N)C(=O)N[C@@H](CC(C)C)C(=O)N[C@@H](Cc1cnc[nH]1)C(=O)N[C@@H](CC(C)C)C(N)=O)[C@@H](C)O [Compound 42] (Palmitoyl-KKLRSMTDKYRLHL-NH2) | – | – | – | –
70.8% | 55.8% | CCCCCCCCCCCCCCCC(=O)N[C@@H](CCCCN)C(=O)N[C@@H](CCCCN)C(=O)N[C@@H](CC(C)C)C(=O)N[C@@H](CCCNC(=N)N)C(=O)N[C@@H](CO)C(=O)N[C@@H](CCSC)C(=O)N[C@H](C(=O)N[C@@H](CC(=O)O)C(=O)N[C@@H](CCCCN)C(=O)N[C@@H](Cc1ccc(O)cc1)C(=O)N[C@@H](CCCNC(=N)N)C(=O)N[C@@H](CC(C)C)C(=O)N[C@@H](Cc1cnc[nH]1)C(N)=O)[C@@H](C)O [Compound 43] (Palmitoyl-KKLRSMTDKYRLH-NH2) | – | – | – | activity at 0.01 µM (CXCR4 [2]; drug conc 0.01 uM, read-out: AUC (% of)): 110%; activity at 0.03 µM (CXCR4 [2]; read-out: AUC (% of)): 110%; activity at 0.03 µM (CXCR4 [2]; read-out: Max (% of)): 92.7%; activity at 0.1 µM (CXCR4 [2]; read-out: AUC (% of)): 108%; activity at 0.1 µM (CXCR4 [2]; read-out: Max (% of)): 93.6%; activity at 0.3 µM (CXCR4 [2]; read-out: AUC (% of)): 97.9%; activity at 0.3 µM (CXCR4 [2]; read-out: Max (% of)): 84.5%; activity at 1 µM (CXCR4 [2]; read-out: Max (% of)): 78.9%; activity at 3 µM (CXCR4 [2]; read-out: AUC (% of)): 79.4%; activity at 3 µM (CXCR4 [2]; read-out: Max (% of)): 76.3%
– | – | 82 (Palmitoyl-HATNSQRPRKLLAEK-NH2; not fully specified) [Compound 82] | 124.56 % of vehicle | 126.31 % of vehicle | 1 nM | –
63.5% | 91.1% | CCCCCCCCCCCCCCCC(=O)N[C@@H](CCSC)C(=O)NCC(=O)N[C@@H](Cc1ccc(O)cc1)C(=O)N[C@@H](CCC(N)=O)C(=O)N[C@@H](CCCCN)C(=O)N[C@@H](CCCCN)C(=O)N[C@@H](CC(C)C)C(=O)N[C@@H](CCCNC(=N)N)C(=O)N[C@@H](CO)C(=O)N[C@@H](CCSC)C(=O)N[C@H](C(=O)N[C@@H](CC(=O)O)C(=O)N[C@@H](CCCCN)C(=O)N[C@@H](Cc1ccc(O)cc1)C(N)=O)[C@@H](C)O [Compound 37] (Palmitoyl-MGYQKKLRSMTDKY-NH2) | – | – | – | activity at 1 µM (CXCR4 [2]; read-out: AUC (% of)): 92.3%; activity at 1 µM (CXCR4 [2]; read-out: Max (% of)): 97.8%
71.9% | 71.2% | CCCCCCCCCCCCCCCC(=O)N[C@@H](Cc1ccc(O)cc1)C(=O)N[C@@H](CCC(N)=O)C(=O)N[C@@H](CCCCN)C(=O)N[C@@H](CCCCN)C(=O)N[C@@H](CC(C)C)C(=O)N[C@@H](CCCNC(=N)N)C(=O)N[C@@H](CO)C(=O)N[C@@H](CCSC)C(=O)N[C@H](C(=O)N[C@@H](CC(=O)O)C(=O)N[C@@H](CCCCN)C(=O)N[C@@H](Cc1ccc(O)cc1)C(=O)N[C@@H](CCCNC(=N)N)C(=O)N[C@@H](CC(C)C)C(=O)N[C@@H](Cc1cnc[nH]1)C(=O)N[C@@H](CC(C)C)C(=O)N[C@@H](CO)C(=O)N[C@H](C(N)=O)C(C)C)[C@@H](C)O [Compound 40] (Palmitoyl-YQKKLRSMTDKYRLHLSV-NH2) | – | – | – | –
178% | 194% | CCCCCCCCCCCCCCCC(=O)N[C@@H](CCCCN)C(=O)N[C@@H](CCCCN)C(=O)N[C@@H](CC(C)C)C(=O)N[C@@H](CCCNC(=N)N)C(=O)N[C@@H](CO)C(=O)N[C@@H](CCSC)C(=O)N[C@H](C(=O)N[C@@H](CC(=O)O)C(=O)N[C@@H](CCCCN)C(=O)N[C@@H](Cc1ccc(O)cc1)C(=O)N[C@@H](CCCNC(=N)N)C(N)=O)[C@@H](C)O [Compound 45] (Palmitoyl-KKLRSMTDKYR-NH2) | – | – | – | –
– | – | 83 (Palmitoyl-HATNSQRPRKLLAEKV-NH2; not fully specified) [Compound 83] | 126.36 % of vehicle | 110.06 % of vehicle | 5 nM | –
51.7% | 41.7% | CCCCCCCCCCCCCCCC(=O)N[C@@H](CCCCN)C(=O)N[C@@H](CCCCN)C(=O)N[C@@H](CC(C)C)C(=O)N[C@@H](CCCNC(=N)N)C(=O)N[C@@H](CO)C(=O)N[C@@H](CCSC)C(=O)N[C@H](C(=O)N[C@@H](CC(=O)O)C(=O)N[C@@H](CCCCN)C(=O)N[C@@H](Cc1ccc(O)cc1)C(=O)N[C@@H](CCCNC(=N)N)C(=O)N[C@@H](CC(C)C)C(=O)N[C@@H](Cc1cnc[nH]1)C(=O)N[C@@H](CC(C)C)C(=O)N[C@@H](CO)C(=O)N[C@H](C(N)=O)C(C)C)[C@@H](C)O [Compound 41] (Palmitoyl-KKLRSMTDKYRLHLSV-NH2) | – | – | – | activity at 1 µM (CXCR4 [2]; read-out: AUC (% of)): 66.7%; activity at 1 µM (CXCR4 [2]; read-out: Max (% of)): 76.8%
25.9% | 31.5% | CCCCCCCCCCCCCCCC(=O)N[C@@H](CCCCN)C(=O)N[C@@H](CCCCN)C(=O)N[C@@H](CC(C)C)C(=O)N[C@@H](CCCNC(=N)N)C(=O)N[C@@H](CO)C(=O)N[C@@H](CCSC)C(=O)N[C@H](C(=O)N[C@@H](CC(=O)O)C(=O)N[C@@H](CCCCN)C(=O)N[C@@H](Cc1ccc(O)cc1)C(=O)N[C@@H](CCCNC(=N)N)C(=O)N[C@@H](CC(C)C)C(N)=O)[C@@H](C)O [Compound 44, Pal-KKLRSMTDKYRL-amide] (Palmitoyl-KKLRSMTDKYRL-NH2) | – | – | – | –
– | – | 81 (Palmitoyl-HATNSQRPRKLLAE-NH2; not fully specified) [Compound 81] | 79.85 % of vehicle | 76.46 % of vehicle | 5 nM | –
– | – | 74 (DRYLAIVHATNSQRPRKLL) [Compound 74] | 90.39 % of vehicle and 77.13 % of vehicle | 91.29 % of vehicle and 75.81 % of vehicle | 5 nM | –
– | – | 78 (Palmitoyl-VHATNSQRPRKLLA-NH2; not fully specified) [Compound 78] | 71.85 % of vehicle | 72.31 % of vehicle | 5 nM | –
32.4% | 49.6% | CCCCCCCCCCCCCCCC(=O)N[C@@H](CCSC)C(=O)NCC(=O)N[C@@H](Cc1ccc(O)cc1)C(=O)N[C@@H](CCC(N)=O)C(=O)N[C@@H](CCCCN)C(=O)N[C@@H](CCCCN)C(=O)N[C@@H](CC(C)C)C(=O)N[C@@H](CCCNC(=N)N)C(=O)N[C@@H](CO)C(=O)N[C@@H](CCSC)C(=O)N[C@H](C(=O)N[C@@H](CC(=O)O)C(=O)N[C@@H](CCCCN)C(=O)N[C@@H](Cc1ccc(O)cc1)C(=O)N[C@@H](CCCNC(=N)N)C(=O)N[C@@H](CC(C)C)C(N)=O)[C@@H](C)O [Compound 38, Pal-MGYQKKLRSMTDKYRL-amide] (Palmitoyl-MGYQKKLRSMTDKYRL-NH2) | – | – | – | –
– | – | 79 (Palmitoyl-HATNSQRPRKL-NH2; not fully specified) [Compound 79] | 109.36 % of vehicle | 109.68 % of vehicle | 5 nM | –
– | – | 80 (Palmitoyl-HATNSQRPRKLLA-NH2; not fully specified) [Compound 80] | 102.2 % of vehicle | 69.02 % of vehicle | 5 nM | –
